Format in all cases: in vivo
Test [1] deals with Heliothis armigera. The test is described as follows: Heliothis armigera test on cotton; drench application. The note with it: Helicoverpa armigera, soil, 168 h, mortality 7 days after infestation, read-out: % Activity (according to Abbott); for pest or weed control at 0.5 mg/plant: 0.5 mg of ai/plant; for pest or weed control at 1 mg/plant: 1 mg of ai/plant. How it is done:
Heliothis armigera Test on Cotton; Drench Application
(§1) • Solvent: 4 parts by weight of acetone • Emulsifier: 1 part by weight of alkylaryl polyglycol ether
(§2) To produce a suitable preparation of active compound, 1 part by weight of active compound is mixed with the stated amounts of solvent and emulsifier, and the concentrate is diluted with water to the desired concentration. Cotton plants (Gossypium hirsuium) are watered with a solution of the product in question (volume of water: 50 ml/plant). The stated concentration refers to the amount of active compound per plant. After about 1 week, the treated plants are infested with larvae of the cotton bollworm (Heliothis armigera). After 1 week, the activity in % is determined. 100% means that all caterpillars have been killed; 0% means that none of the caterpillars have been killed.

Test [2] has as its system Diabrotica balteata. The test is described as follows: Diabrotica balteata test on maize; drench application. The settings on record: soil, 192 h, mortality 8 days after treatment, mixtures about 95%/5%, read-out: % Activity (according to Abbott). Here is the method: Diabrotica balteata Test on Maize; Drench Application • Solvent: 7 parts by weight of dimethylformamide • Emulsifier: 1 part by weight of alkylaryl polyglycol ether To produce a suitable preparation of active compound, 1 part by weight of active compound is mixed with the stated amounts of solvent and emulsifier, and the concentrate is diluted with water to the desired concentration. Maize plants (Zea mays) are watered with the solution of the product in question and infested with larvae of the banded cucumber beetle (Diabrotica baltenta). After 8 days, the activity in % is determined. 100% means that all caterpillars have been killed; 0% means that none of the caterpillars have been killed.

For test [3], the system named is Spodoptera frugiperda. The test is described as follows: Spodoptera frugiperda test on maize; drench application (Example B). The settings on record: soil, 168 h, mortality 7 days after infestation, read-out: % Activity (according to Abbott); for pest or weed control at 0.5 mg/plant: 0.5 mg of ai/plant; for pest or weed control at 1 mg/plant: 1 mg of ai/plant. How it is done: Spodoptera frugiperda Test on Maize; Drench Application
as §1
as §2, with “Maize” for “Cotton”, “(Zea mays)” for “(Gossypium hirsuium)”, “with” for “with larvae of”, “armyworm (Spodoptera frugiperda).” for “cotton bollworm (Heliothis armigera).”

The subject of test [4] is Plutella xylostella. The test is described as follows: Plutella xylostella test on Savoy cabbage; drench application. The note with it: soil, 168 h, mortality 7 days after infestation, read-out: % Activity (according to Abbott); for pest or weed control at 0.5 mg/plant: 0.5 mg of ai/plant; for pest or weed control at 1 mg/plant: 1 mg of ai/plant. How it is done: Plutella xylostella test on Savoy Cabbage; Drench Application
as §1
as §2, with “Savoy cabbage (Brassica oleracea) is” for “Cotton plants (Gossypium hirsuium) are”, “60” for “50”, “diamondback moth (Plutella xylostella).” for “cotton bollworm (Heliothis armigera).”

The subject of test [5] is Myzus persicae. The test can be described thus: Myzus persicae test on Savoy cabbage; drench application. The note with it: soil, 240 h, mortality 10 days after treatment, mixtures about 85%/15% and 84%/15%, read-out: % Activity (according to Abbott). How it is done: Myzus persicae Test on Savoy Cabbage; Drench Application • Solvent: 7 parts by weight of dimethylformamide • Emulsifier: part by weight of alkylaryl polyglycol ether To produce a suitable preparation of active compound, 1 part by weight of active compound is mixed with the stated amounts of solvent and emulsifier, and the concentrate is diluted with water to the desired concentration. Savoy cabbage (Brassica oleracea) heavily infested by the green peach aphid (Myzus persicae) is watered with a solution of the product of the desired concentration. After 10 days, the activity in % is determined. 100% means that all of the aphids have been killed: 0% means that none of the aphids have been killed.

Test [6] concerns Spodoptera frugiperda. The test is described as follows: Spodoptera frugiperda test on maize; drench application (Example B-1). The note with it: soil, 336 h, mortality 14 days after treatment, read-out: % Activity (according to Abbott). How it is done: Spodoptera fugiperda Test on Maize; […] Application • Solvent: 7 parts by weight of dimethylformamide • Emulsifier: 1 part by weight of alkylaryl polyglycol ether To produce a suitable preparation of active compound, 1 part by weight of active compound is mixed with the stated amounts of solvent and emulsifier, and the concentrate is diluted with water to the desired concentration. Maize plants (Zea mays) are watered with a solution of the product in question and infested with the armyworm (Spadoptera frugiperda). After 14 days, the activity in % is determined. 100% means that all caterpillars have been killed; 0% means that none of the caterpillars have been killed.

The results in this text go back to US8658570B2, “Use of anthranilamide derivatives for controlling insects and spider mites by drenching, soil mixing, furrow treatment, drip application, soil, stem or flower injection, in hydroponic systems, by planting hole treatment or dip application, floating or seedbox application or by treating seed, and …” (Bayer Cropscience AG, priority 2010, dated 2014).

For `Cc1cc(Br)cc(C(=O)NCC#N)c1NC(=O)c1cc(Cn2nnc(C(F)(F)F)n2)nn1-c1ncccc1Cl` [(I-1-68)], the pest or weed control at 0.5 mg/plant in test [1], in test [3] and in test [4] was 100% each time. Also, the inhibition at 20 ppm in test [2] worked out at 100%.
For `Cc1cc(C#N)cc(C(=O)NC(C)(C)C)c1NC(=O)c1cc(Cn2nnc(C3CC3)n2)nn1-c1ncccc1Cl` [(I-1-71)], the pest or weed control at 0.5 mg/plant in test [3] came to 85%; in test [4], 90%.
Take `CNC(=O)c1cc(I)cc(C)c1NC(=O)c1cc(Cn2nnc(C(F)(F)F)n2)nn1-c1ncccc1Cl` [(I-1-69)]: the pest or weed control at 0.5 mg/plant in test [1] stood at 100%; in test [3], 85%; in test [4], 100%. Also, the inhibition at 20 ppm in test [2] is 100%.
`CNC(=O)c1cc(F)cc(C)c1NC(=O)c1cc(Cn2nnc(C(F)(F)F)n2)nn1-c1ncccc1Cl` [(I-1-61)]: the pest or weed control at 0.5 mg/plant in test [1], in test [3] and in test [4] was 100% in each case.
Turning to `CCNC(=O)c1cc(C#N)cc(C)c1NC(=O)c1cc(Cn2nnc(C(F)(F)F)n2)nn1-c1ncccc1Cl` [(I-1-3)], the inhibition at 20 ppm in test [5] came out at 90%. The pest or weed control at 0.5 mg/plant in test [1], in test [3] and in test [4] was 100% throughout.
Turning to `Cc1cc(C#N)cc(C(=O)NC(C)(C)C)c1NC(=O)c1cc(Cn2nnc(C(F)(F)F)n2)nn1-c1ncccc1Cl` [(I-1-2)], the inhibition at 20 ppm in test [6] was determined as 100%.
For `Cc1cc(C#N)cc(C(=O)NC(C)(C)C)c1NC(=O)c1cc(Cn2nnc(C(F)(F)F)n2)nn1-c1ncccc1Cl` [(I-1-63)], the pest or weed control at 0.5 mg/plant in test [1], in test [3] and in test [4] was 100% in each case.
As to `CNC(=O)c1cc(C#N)cc(C)c1NC(=O)c1cc(Cn2nnc(C(F)(F)F)n2)nn1-c1ncccc1Cl` [(I-1-1)], the inhibition at 20 ppm in test [2] and in test [6] was 100% each time.
`CNC(=O)c1cc(Br)cc(C)c1NC(=O)c1cc(Cn2nnc(C(F)(F)F)n2)nn1-c1ncccc1Cl` [(I-1-64)]: the pest or weed control at 0.5 mg/plant in test [1], in test [3] and in test [4] was 100% throughout.
With `CNC(=O)c1cc(C#N)cc(C)c1NC(=O)c1cc(Cn2nnc(C(F)(F)F)n2)nn1-c1ncccc1Br` [(I-1-62)], the inhibition at 20 ppm in test [5] was 80%; in test [2] it was 100%. For the same compound, the pest or weed control at 0.5 mg/plant in test [1] is 95%; in test [3], 98%; in test [4], 100%.
As to `CNC(=O)c1cc(C#N)cc(C)c1NC(=O)c1cc(Cn2nnc(C(F)(F)F)n2)nn1-c1c(F)cccc1Cl` [(I-1-66)], the inhibition at 20 ppm in test [5] and in test [2] was 90% throughout. Further, the pest or weed control at 1 mg/plant in test [1] was found to be 100%; in test [3], 95%; in test [4], 90%.
Take `Cc1cc(C#N)cc(C(=O)NC(C)C)c1NC(=O)c1cc(Cn2nnc(C(F)(F)F)n2)nn1-c1ncccc1Br` [(I-1-67)]: the figures for the pest or weed control at 1 mg/plant in test [1], in test [3] and in test [4] were 100%, 90% and 100%, respectively.
Turning to `Cc1cc(C#N)cc(C(=O)NC(C)(C)C)c1NC(=O)c1cc(Cn2nnc(C(F)(F)F)n2)nn1-c1ncccc1Br` [(I-1-65)], the pest or weed control at 1 mg/plant is 100% in test [1], 95% in test [3] and 100% in test [4].
In the case of `Cc1cc(C#N)cc(C(=O)NC(C)(C)C)c1NC(=O)c1cc(Cn2nnc(C(F)(F)F)n2)nn1-c1ncccc1F` [(I-1-70)], the pest or weed control at 1 mg/plant in test [1] came out at 95%; in test [3], 90%; in test [4] it was 100%.
